Data published in patent publication US20090018116A1, “Therapeutic Compounds” (ASTRAZENECA AB, priority 2004, published 2009).
pEC50, pKi: −log10 of the molar value.

Key:
Human CB1 receptor [1] = molecular target: T1, Human CB1 receptor (Homo sapiens, UniProt P21554); assay: hCB1 GTPγS binding; type: biochemical; conditions: hCB1 membranes, GTPg35S binding; for Emax: maximal stimulation with 10 μM Win 55,212-2
T1 construct: purchased Receptor Biology
Method: Human CB1 receptor from Receptor Biology (hCB1) or human CB2 receptor membranes (BioSignal) are thawed at 37° C., passed 3 times through a 25-gauge blunt-end needle and diluted in the GTPγS binding buffer (50 mM Hepes, 20 mM NaOH, 100 mM NaCl, 1 mM EDTA, 5 mM MgCl2, pH 7.4, 0.1% BSA). […] The basal and maximal stimulated binding is determined in absence and presence of 1 μM (hCB2) or 10 μM (hCB1) Win 55,212-2 respectively. The membranes are pre-incubated for 5 minutes with 56.25 μM (hCB2) or 112.5 μM (hCB1) GDP prior to distribution in plates (15 μM (hCB2) or 30 μM (hCB1) GDP final). The plates are vortexed and incubated for 60 minutes at room temperature, filtered on Unifilters GF/B (presoaked in water) with the Tomtec or Packard harvester using 3 ml of wash buffer (50 mM Tris, 5 mM MgCl2, 50 mM NaCl, pH 7.0). The filters are dried for 1 hour at 55° C. The radioactivity (cpm) is counted in a TopCount (Packard) after adding 65 μl/well of MS-20 scintillation liquid. Antagonist reversal studies are done in the same way except that (a) an agonist dose-response curve is done in the presence of a constant concentration of antagonist, or (b) an antagonist dose-response curve is done in the presence of a constant concentration of agonist.

Human CB1 receptor [2] = molecular target: T1, Human CB1 receptor; assay: hCB1 receptor binding (3H-CP55,940 displacement); conditions: hCB1 membranes, Ki=IC50/(1+[rad]/Kd)
Method: The total and non-specific binding are determined in the absence and presence of 0.2 μM of HU210 respectively. The plates are vortexed and incubated for 60 minutes at room temperature, filtered through Unifilters GF/B (presoaked in 0.1% polyethyleneimine) with the Tomtec or Packard harvester using 3 mL of wash buffer (50 mM Tris, 5 mM MgCl2, 0.5 mg BSA pH 7.0). The filters are dried for 1 hour at 55° C. The radioactivity (cpm) is counted in a TopCount (Packard) after adding 65 μl/well of MS-20 scintillation liquid.
Based on the above assays, the dissociation constant (Ki) for a particular compound of the invention towards a particular receptor is determined using the following equation:
[rad] is a standard or reference radioactive ligand concentration at that moment; and
Kd is the dissociation constant of the radioactive ligand towards the particular receptor.

T1 sequence (P21554 whole entry): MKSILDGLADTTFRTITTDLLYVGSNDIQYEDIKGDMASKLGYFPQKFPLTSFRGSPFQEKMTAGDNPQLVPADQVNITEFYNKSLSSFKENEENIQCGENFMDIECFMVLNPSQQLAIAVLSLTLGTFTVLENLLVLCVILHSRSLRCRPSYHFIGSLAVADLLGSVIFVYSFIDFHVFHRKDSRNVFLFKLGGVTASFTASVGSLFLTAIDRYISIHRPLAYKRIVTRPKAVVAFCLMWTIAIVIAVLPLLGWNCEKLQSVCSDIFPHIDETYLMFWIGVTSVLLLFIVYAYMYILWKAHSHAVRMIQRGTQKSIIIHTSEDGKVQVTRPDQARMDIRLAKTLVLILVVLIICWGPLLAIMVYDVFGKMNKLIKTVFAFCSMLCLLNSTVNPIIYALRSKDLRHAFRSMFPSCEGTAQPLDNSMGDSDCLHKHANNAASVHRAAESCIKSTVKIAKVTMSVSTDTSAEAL

| Compound | pEC50 (Human CB1 receptor [1]) | Emax (Human CB1 receptor [1]) [%] | pKi (Human CB1 receptor [2]) |
| --- | --- | --- | --- |
| O=C(NCC1CCC1)c1cc(Cl)ccc1NC(=O)c1cccc2ccccc12 [Example 17, N-[4-Chloro-2-[[(cyclobutylmethyl)amino]carbonyl]phenyl]-1-naphthalenecarboxamide] | 7.39 | 95 | 8.14 |
| O=C(NC1CCOCC1)c1cc(Cl)ccc1NC(=O)c1cccc2ccccc12 [Example 30, N-[4-Chloro-2-[[(tetrahydro-2H-pyran-4-yl)amino]carbonyl]phenyl]-1-naphthalenecarboxamide] | 6.52 | 109 | 7.15 |
| O=C(NCC1CCCCC1)c1c(O)cccc1NC(=O)c1cccc2ccccc12 [Example 49, N-[2-[[(Cyclohexylmethyl)amino]carbonyl]-3-hydroxyphenyl]-1-naphthalenecarboxamide] | – | 109 | – |
